target: GST-Bcl-2 (Homo sapiens (Human), UniProt P10415); assay: Time Resolved-Fluorescence Resonance Energy Transfer (TR-FRET) Bcl-2 binding assay; details: GST-Bcl-2 1 nM, F-Bak peptide probe 100 nM, Tb-anti-GST antibody 1 nM; Ki by Wang's equation
Method in brief: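 Competition TR-FRET: GST-Bcl-2 with fluorescent Bak peptide probe and Tb-anti-GST antibody, compounds serially diluted from 50 μM (2× start, 10% DMSO).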

Sequence of GST-Bcl-2 (P10415 whole entry): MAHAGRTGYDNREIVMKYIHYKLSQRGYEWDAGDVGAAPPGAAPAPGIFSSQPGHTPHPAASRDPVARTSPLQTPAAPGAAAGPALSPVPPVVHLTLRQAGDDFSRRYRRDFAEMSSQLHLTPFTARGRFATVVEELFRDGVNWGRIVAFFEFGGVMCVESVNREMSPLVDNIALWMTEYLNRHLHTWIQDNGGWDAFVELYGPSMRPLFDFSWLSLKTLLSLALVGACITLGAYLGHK

Point of comparison: `CN(C)CCCNc1ccc(S(=O)(=O)NC(=O)c2ccc(N3CCN(Cc4ccccc4-c4ccc(Cl)cc4)CC3)cc2Oc2ccc3[nH]cc(CCC(=O)N4CCOCC4)c3c2)cc1[N+](=O)[O-]` [Example 70, 4-(4-((4′-chloro-1,1′-biphenyl-2-yl)methyl)piperazin-1-yl)-N-((4-((3-(dimethylamino)propyl)amino)-3-nitrophenyl)sulfonyl)-2-((3-(3-morpholin-4-yl-3-oxopropyl)-1H-indol-5-yl)oxy)benzamide], Ki 20.4 nM. Against it:
- O=C(NS(=O)(=O)c1ccc(NCCCN2CCOCC2)c([N+](=O)[O-])c1)c1ccc(N2CCN(Cc3ccccc3-c3ccc(Cl)cc3)CC2)cc1Oc1cccc(N2CCOCC2)c1 [Example 69, 4-(4-((4′-chloro-1,1′-biphenyl-2-yl)methyl)piperazin-1-yl)-2-(3-morpholin-4-ylphenoxy)-N-((4-((3-morpholin-4-ylpropyl)amino)-3-nitrophenyl)sulfonyl)benzamide] — 2.5-fold lower, 8.25 nM
- O=C(NS(=O)(=O)c1ccc(NCC2CCOCC2)c([N+](=O)[O-])c1)c1ccc(N2CCN(Cc3ccccc3-c3ccc(Cl)cc3)CC2)cc1Oc1cccc(OCc2ccccc2)c1 [Example 71, 2-(3-(benzyloxy)phenoxy)-4-(4-((4′-chloro-1,1′-biphenyl-2-yl)methyl)piperazin-1-yl)-N-((3-nitro-4-((tetrahydro-2H-pyran-4-ylmethyl)amino)phenyl)sulfonyl)benzamide] — 1.5-fold higher, 31.6 nM
- N#Cc1ccc(Oc2cc(N3CCN(Cc4ccccc4-c4ccc(Cl)cc4)CC3)ccc2C(=O)NS(=O)(=O)c2ccc(NCC3CCOCC3)c([N+](=O)[O-])c2)cc1 [Example 72, 4-(4-((4′-chloro-1,1′-biphenyl-2-yl)methyl)piperazin-1-yl)-2-(4-cyanophenoxy)-N-((3-nitro-4-((tetrahydro-2H-pyran-4-ylmethyl)amino)phenyl)sulfonyl)benzamide] — 1.6-fold higher, 31.7 nM
- O=C(NS(=O)(=O)c1ccc(NCC2CCOCC2)c([N+](=O)[O-])c1)c1ccc(N2CCN(Cc3ccccc3-c3ccc(Cl)cc3)CC2)cc1Oc1ccc2[nH]cc(CCC(=O)N3CCOCC3)c2c1 [Example 73, 4-(4-((4′-chloro-1,1′-biphenyl-2-yl)methyl)piperazin-1-yl)-2-((3-(3-morpholin-4-yl-3-oxopropyl)-1H-indol-5-yl)oxy)-N-((3-nitro-4-((tetrahydro-2H-pyran-4-ylmethyl)amino)phenyl)sulfonyl)benzamide] — 1.6-fold higher, 32.3 nM
- O=C(NS(=O)(=O)c1ccc(NCC2CCOCC2)c([N+](=O)[O-])c1)c1ccc(N2CCN(Cc3ccccc3-c3ccc(Cl)cc3)CC2)cc1Oc1ccc2[nH]cc(CCCN3CCOCC3)c2c1 [Example 74, 4-(4-((4′-chloro-1,1′-biphenyl-2-yl)methyl)piperazin-1-yl)-2-((3-(3-morpholin-4-ylpropyl)-1H-indol-5-yl)oxy)-N-((3-nitro-4-((tetrahydro-2H-pyran-4-ylmethyl)amino)phenyl)sulfonyl)benzamide] — 9.3-fold higher, 189 nM
- CN(C)Cc1ccc(Oc2cc(N3CCN(Cc4ccccc4-c4ccc(Cl)cc4)CC3)ccc2C(=O)NS(=O)(=O)c2ccc(NCC3CCOCC3)c([N+](=O)[O-])c2)cc1 [Example 75, 4-(4-((4′-chloro-1,1′-biphenyl-2-yl)methyl)piperazin-1-yl)-2-(4-((dimethylamino)methyl)phenoxy)-N-((3-nitro-4-((tetrahydro-2H-pyran-4-ylmethyl)amino)phenyl)sulfonyl)benzamide] — 3.8-fold higher, 76.8 nM
- O=C(NS(=O)(=O)c1ccc(NCC2CCOCC2)c([N+](=O)[O-])c1)c1ccc(N2CCN(Cc3ccccc3-c3ccc(Cl)cc3)CC2)cc1Oc1ccc(-n2ccnc2)cc1 [Example 76, 4-(4-((4′-chloro-1,1′-biphenyl-2-yl)methyl)piperazin-1-yl)-2-(4-(1H-imidazol-1-yl)phenoxy)-N-((3-nitro-4-((tetrahydro-2H-pyran-4-ylmethyl)amino)phenyl)sulfonyl)benzamide] — 12-fold higher, 240 nM
- O=C(NS(=O)(=O)c1ccc(NCC2CCOCC2)cc1)c1ccc(N2CCN(Cc3ccccc3-c3ccc(Cl)cc3)CC2)cc1Oc1cccc([N+](=O)[O-])c1 [Example 77, 4-(4-((4′-chloro-1,1′-biphenyl-2-yl)methyl)piperazin-1-yl)-2-(3-nitrophenoxy)-N-((4-((tetrahydro-2H-pyran-4-ylmethyl)amino)phenyl)sulfonyl)benzamide] — 22-fold higher, 451 nM
- CCN(Cc1ccc(Oc2cc(N3CCN(Cc4ccccc4-c4ccc(Cl)cc4)CC3)ccc2C(=O)NS(=O)(=O)c2ccc(NCC3CCOCC3)c([N+](=O)[O-])c2)cc1)C(=O)OC(C)(C)C [Example 78, tert-butyl 4-(5-(4-((4′-chloro-1,1′-biphenyl-2-yl)methyl)piperazin-1-yl)-2-((((3-nitro-4((tetrahydro-2H-pyran-4-ylmethyl)amino)phenyl)sulfonyl)amino)carbonyl)phenoxy)benzyl(ethyl)carbamate] — higher, > 1200 nM
- CCN(Cc1cccc(Oc2cc(N3CCN(Cc4ccccc4-c4ccc(Cl)cc4)CC3)ccc2C(=O)NS(=O)(=O)c2ccc(NCC3CCOCC3)c([N+](=O)[O-])c2)c1)C(=O)OC(C)(C)C [Example 79, tert-butyl 3-(5-(4-((4′-chloro-1,1′-biphenyl-2-yl)methyl)piperazin-1-yl)-2-((((3-nitro-4-((tetrahydro-2H-pyran-4-ylmethyl)amino)phenyl)sulfonyl)amino)carbonyl)phenoxy)benzyl(ethyl)carbamate] — 4.9-fold higher, 99.8 nM
- CCNCc1cccc(Oc2cc(N3CCN(Cc4ccccc4-c4ccc(Cl)cc4)CC3)ccc2C(=O)NS(=O)(=O)c2ccc(NCC3CCOCC3)c([N+](=O)[O-])c2)c1 [Example 81, 4-(4-((4′-chloro-1,1′-biphenyl-2-yl)methyl)piperazin-1-yl)-2-(3-((ethylamino)methyl)phenoxy)-N-((3-nitro-4-((tetrahydro-2H-pyran-4-ylmethyl)amino)phenyl)sulfonyl)benzamide] — 1.5-fold higher, 31 nM
- CC(=O)Nc1ccc(Oc2cc(N3CCN(Cc4ccccc4-c4ccc(Cl)cc4)CC3)ccc2C(=O)NS(=O)(=O)c2ccc(NCC3CCOCC3)c([N+](=O)[O-])c2)cc1 [Example 82, 2-(4-(acetylamino)phenoxy)-4-(4-((4′-chloro-1,1′-biphenyl-2-yl)methyl)piperazin-1-yl)-N-((3-nitro-4-((tetrahydro-2H-pyran-4-ylmethyl)amino)phenyl)sulfonyl)benzamide] — 25-fold higher, 512 nM
- CC(C)(C)OC(=O)Nc1ccc(Oc2cc(N3CCN(Cc4ccccc4-c4ccc(Cl)cc4)CC3)ccc2C(=O)NS(=O)(=O)c2ccc(NCC3CCOCC3)c([N+](=O)[O-])c2)cc1 [Example 83, tert-butyl 4-(5-(4-((4′-chloro-1,1′-biphenyl-2-yl)methyl)piperazin-1-yl)-2-((((3-nitro-4-((tetrahydro-2H-pyran-4-ylmethyl)amino)phenyl)sulfonyl)amino)carbonyl)phenoxy)phenylcarbamate] — higher, > 1200 nM
- O=C(NS(=O)(=O)c1ccc(NCC2CCOCC2)c([N+](=O)[O-])c1)c1ccc(N2CCN(Cc3ccccc3-c3ccc(Cl)cc3)CC2)cc1Oc1ccccc1-c1ccccc1 [Example 84, 2-(1,1′-biphenyl-2-yloxy)-4-(4-((4′-chloro-1,1′-biphenyl-2-yl)methyl)piperazin-1-yl)-N-((3-nitro-4-((tetrahydro-2H-pyran-4-ylmethyl)amino)phenyl)sulfonyl)benzamide] — within 1.5-fold, 13.7 nM
- CC(C)(C)OC(=O)Nc1cccc(Oc2cc(N3CCN(Cc4ccccc4-c4ccc(Cl)cc4)CC3)ccc2C(=O)NS(=O)(=O)c2ccc(NCC3CCOCC3)c([N+](=O)[O-])c2)c1 [Example 85, tert-butyl 3-(5-(4-((4′-chloro-1,1′-biphenyl-2-yl)methyl)piperazin-1-yl)-2-((((3-nitro-4-((tetrahydro-2H-pyran-4-ylmethyl)amino)phenyl)sulfonyl)amino)carbonyl)phenoxy)phenylcarbamate] — 3.6-fold lower, 5.63 nM
- O=C(NS(=O)(=O)c1ccc(NCC2CCOCC2)c([N+](=O)[O-])c1)c1ccc(N2CCN(Cc3ccccc3-c3ccc(Cl)cc3)CC2)cc1Oc1cccc(-c2ccccc2)c1 [Example 86, 2-(1,1′-biphenyl-3-yloxy)-4-(4-((4′-chloro-1,1′-biphenyl-2-yl)methyl)piperazin-1-yl)-N-((3-nitro-4-((tetrahydro-2H-pyran-4-ylmethyl)amino)phenyl)sulfonyl)benzamide] — 3.9-fold lower, 5.26 nM
- CN(C)CCc1ccc(Oc2cc(N3CCN(Cc4ccccc4-c4ccc(Cl)cc4)CC3)ccc2C(=O)NS(=O)(=O)c2ccc(NCC3CCOCC3)c([N+](=O)[O-])c2)cc1 [Example 87, 4-(4-((4′-chloro-1,1′-biphenyl-2-yl)methyl)piperazin-1-yl)-2-(4-(2-(dimethylamino)ethyl)phenoxy)-N-((3-nitro-4-((tetrahydro-2H-pyran-4-ylmethyl)amino)phenyl)sulfonyl)benzamide] — 13-fold higher, 264 nM
- O=C(NS(=O)(=O)c1ccc(NCC2CCOCC2)c([N+](=O)[O-])c1)c1ccc(N2CCN(Cc3ccccc3-c3ccc(Cl)cc3)CC2)cc1Oc1ccc(OCc2ccccc2)cc1 [Example 88, 2-(4-(benzyloxy)phenoxy)-4-(4-((4′-chloro-1,1′-biphenyl-2-yl)methyl)piperazin-1-yl)-N-((3-nitro-4-((tetrahydro-2H-pyran-4-ylmethyl)amino)phenyl)sulfonyl)benzamide] — higher, > 1200 nM
- O=C(NS(=O)(=O)c1ccc(NCC2CCOCC2)c([N+](=O)[O-])c1)c1ccc(N2CCN(Cc3ccccc3-c3ccc(Cl)cc3)CC2)cc1Oc1cccc(N2CCOCC2)c1 [Example 89, 4-(4-((4′-chloro-1,1′-biphenyl-2-yl)methyl)piperazin-1-yl)-2-(3-morpholin-4-ylphenoxy)-N-((3-nitro-4-((tetrahydro-2H-pyran-4-ylmethyl)amino)phenyl)sulfonyl)benzamide] — 3.3-fold lower, 6.11 nM
- Cc1nc2cc(Oc3cc(N4CCN(Cc5ccccc5-c5ccc(Cl)cc5)CC4)ccc3C(=O)NS(=O)(=O)c3ccc(NCC4CCOCC4)c([N+](=O)[O-])c3)ccc2s1 [Example 90, 4-(4-((4′-chloro-1,1′-biphenyl-2-yl)methyl)piperazin-1-yl)-2-((2-methyl-1,3-benzothiazol-5-yl)oxy)-N-((3-nitro-4-((tetrahydro-2H-pyran-4-ylmethyl)amino)phenyl)sulfonyl)benzamide] — 1.9-fold lower, 10.6 nM
